The NIST ThermoML archive (doi:10.1016/j.jct.2009.12.001)

Assay: osmotic coefficient (dimensionless); mn = molality of the nth substance listed, in mol/kg
Conditions: 323.15 K, Liquid, Vapor Pressure Osmometer

CCOS(=O)(=O)[O-].CC[n+]1ccccc1 [1-ethylpyridinium ethyl sulfate] + CCCO
Conditions | osmotic coefficient
m1 = 0.0584 | 0.853
m1 = 0.073 | 0.824
m1 = 0.1074 | 0.768
m1 = 0.2108 | 0.684
m1 = 0.3057 | 0.635
m1 = 0.4128 | 0.603
m1 = 0.5105 | 0.586
m1 = 0.7918 | 0.561
m1 = 1.108 | 0.547
m1 = 1.347 | 0.54
m1 = 1.697 | 0.528
m1 = 2.217 | 0.505
m1 = 2.727 | 0.487
m1 = 3.22 | 0.474

CCOS(=O)(=O)[O-].CC[n+]1ccccc1 [1-ethylpyridinium ethyl sulfate] + CCC(C)O
Conditions | osmotic coefficient
m1 = 0.0597 | 0.82
m1 = 0.0791 | 0.784
m1 = 0.1061 | 0.759
m1 = 0.1993 | 0.665
m1 = 0.313 | 0.575
m1 = 0.4056 | 0.515
m1 = 0.5166 | 0.482
m1 = 0.7016 | 0.452
m1 = 1.006 | 0.429
m1 = 1.291 | 0.421
m1 = 1.73 | 0.406
m1 = 2.104 | 0.392
m1 = 2.512 | 0.383
m1 = 2.915 | 0.378
m1 = 3.294 | 0.374

CCOS(=O)(=O)[O-].CC[n+]1ccccc1 [1-ethylpyridinium ethyl sulfate] + CCCCO
Conditions | osmotic coefficient
m1 = 0.0564 | 0.758
m1 = 0.0836 | 0.694
m1 = 0.1146 | 0.652
m1 = 0.2084 | 0.578
m1 = 0.2995 | 0.536
m1 = 0.3996 | 0.508
m1 = 0.5015 | 0.495
m1 = 0.7046 | 0.467
m1 = 0.9934 | 0.44
m1 = 1.289 | 0.429
m1 = 1.688 | 0.418
m1 = 2.094 | 0.402
m1 = 2.493 | 0.388
m1 = 2.886 | 0.38
m1 = 3.301 | 0.374

CCOS(=O)(=O)[O-].CC[n+]1ccccc1 [1-ethylpyridinium ethyl sulfate] + CC(C)O
Conditions | osmotic coefficient
m1 = 0.0578 | 0.948
m1 = 0.1042 | 0.871
m1 = 0.2018 | 0.772
m1 = 0.3112 | 0.695
m1 = 0.3991 | 0.664
m1 = 0.5034 | 0.607
m1 = 0.6891 | 0.564
m1 = 0.9837 | 0.533
m1 = 1.287 | 0.506
m1 = 1.684 | 0.49
m1 = 2.075 | 0.47
m1 = 2.514 | 0.449
m1 = 2.915 | 0.432
m1 = 3.338 | 0.417

CCOS(=O)(=O)[O-].CC[n+]1ccccc1 [1-ethylpyridinium ethyl sulfate] + CCCCCO
Conditions | osmotic coefficient
m1 = 0.0539 | 0.761
m1 = 0.0802 | 0.679
m1 = 0.1082 | 0.605
m1 = 0.2024 | 0.521
m1 = 0.3151 | 0.465
m1 = 0.4053 | 0.435
m1 = 0.511 | 0.416
m1 = 0.7996 | 0.376
m1 = 1.105 | 0.359
m1 = 1.414 | 0.355
m1 = 1.719 | 0.347
m1 = 2.23 | 0.335
m1 = 2.724 | 0.332
m1 = 3.206 | 0.33
